According to article PMC11423305, “Structure-Based Design of CBP/EP300 Degraders: When Cooperativity Overcomes Affinity” (JACS Au, 2024):
Entries after “also recorded” stand apart in the source; their conditions may differ.

Tested on: SH-SY5Y cells
Assay: Cell viability (resazurin), SH-SY5Y
Assay type: cell-based
Settings: 3 day treatment
Experimental: normalized to DMSO treated lanes on the same membrane. (Several compounds were
measured at the same time, so DMSO treated lanes are replicated here between
Figure S5. Anti-proliferation in additional cell lines. LNCaP (A and C) and SH-SY5Y (B)
cell viability following 3 day compound treatment, and LNCaP following 6 day treatment
(D), determined using resazurin.
After 3 days of treatment, dCE-2 only has a mild effect on the proliferation of LNCaP and
SH-SY5Y cells (Figure S5A and B).
the new CBP/EP300 PROTACs CBPD -268 and CBPD-4092,3 which have enhanced anti-
proliferative activity in LNcaP cells relative to their parent inhibitor s. However, although
these PROTACs have effects at very low concentrations, their effect plateaus and a
substantial proportion of cells remain viable at high compound concentrations. Similarly,
degradation of CBP and EP300, the maximal effect of this PROTAC is also limited under
the conditions we used (Figure S5C). Through this work it was clear to us that these […]
The primer sequences used were:
Gene Gene ID Forward Primer (5’-3’) Reverse primer (5’-3’)
myc NM_001354870.1 GTAGTGGAAAACCAGCC […]
Fluorescence (excitation = 560 nm, emission = 590 nm) was measured using a
spectraMax M5 microplate reader (Molecular Devices) and cell viability was calculated […]
values were calculated as the concentration required to inhibit cell viability to 50 % […]

For Cc1cc2c(NC(=O)c3cc(NC(=O)CCCCCCCCCCNc4cccc5c4C(=O)N(C4CCC(=O)NC4=O)C5=O)cc(-c4ccn(C)n4)c3)cccc2nn1 (stereo not shown) [dCE-2], the “effect on proliferation of SH-SY5Y cells” value was “mild effect; also recorded: limited effect”.
